Laboratory results as given in the NIST ThermoML archive (doi:10.1016/j.tca.2012.01.013).

Legend:
[1] = xn = mol fraction of the nth substance listed; settings: 101 kPa, Liquid, Vibrating tube method
[2] = refractive index (Na D-line) (dimensionless); xn = mol fraction of the nth substance listed; settings: 101 kPa, Liquid, Standard Abbe refractometry

COC(=O)c1ccccc1C(=O)OC [dimethyl 1,2-benzenedicarboxylate] + CCCCO
Settings | mass density, [1] [kg/m3] | refractive index, [2]
288.15 K, x1 = 0.0997 | 877.193 | 1.42114
288.15 K, x1 = 0.1998 | 932.375 | 1.43796
288.15 K, x1 = 0.2994 | 980.153 | 1.45268
288.15 K, x1 = 0.3999 | 1022.54 | 1.4657
288.15 K, x1 = 0.5 | 1059.92 | 1.47709
288.15 K, x1 = 0.5985 | 1092.78 | 1.48663
288.15 K, x1 = 0.7001 | 1123.06 | 1.49584
288.15 K, x1 = 0.8016 | 1150.29 | 1.50398
288.15 K, x1 = 0.9002 | 1174.24 | 1.51118
288.15 K, x1 = 1 | 1196.26 | 1.51779
293.15 K, x1 = 0.0997 | 873.146 | 1.41907
293.15 K, x1 = 0.1998 | 928.143 | 1.43584
293.15 K, x1 = 0.2994 | 975.792 | 1.45052
293.15 K, x1 = 0.3999 | 1018.08 | 1.46353
293.15 K, x1 = 0.5 | 1055.37 | 1.47491
293.15 K, x1 = 0.5985 | 1088.17 | 1.48446
293.15 K, x1 = 0.7001 | 1118.42 | 1.49365
293.15 K, x1 = 0.8016 | 1145.63 | 1.50183
293.15 K, x1 = 0.9002 | 1169.57 | 1.50903
293.15 K, x1 = 1 | 1191.59 | 1.51565
298.15 K, x1 = 0.0997 | 869.077 | 1.41699
298.15 K, x1 = 0.1998 | 923.892 | 1.43374
298.15 K, x1 = 0.2994 | 971.414 | 1.44835
298.15 K, x1 = 0.3999 | 1013.6 | 1.46136
298.15 K, x1 = 0.5 | 1050.83 | 1.47274
298.15 K, x1 = 0.5985 | 1083.57 | 1.48227
298.15 K, x1 = 0.7001 | 1113.78 | 1.49148
298.15 K, x1 = 0.8016 | 1140.96 | 1.49966
298.15 K, x1 = 0.9002 | 1164.91 | 1.50689
298.15 K, x1 = 1 | 1186.93 | 1.51354
303.15 K, x1 = 0.0997 | 864.981 | 1.41489
303.15 K, x1 = 0.1998 | 919.619 | 1.43158
303.15 K, x1 = 0.2994 | 967.016 | 1.44618
303.15 K, x1 = 0.3999 | 1009.11 | 1.45918
303.15 K, x1 = 0.5 | 1046.26 | 1.47057
303.15 K, x1 = 0.5985 | 1078.96 | 1.4801
303.15 K, x1 = 0.7001 | 1109.14 | 1.48929
303.15 K, x1 = 0.8016 | 1136.31 | 1.49753
303.15 K, x1 = 0.9002 | 1160.25 | 1.50474
303.15 K, x1 = 1 | 1182.28 | 1.51146
308.15 K, x1 = 0.0997 | 860.864 | 1.41266
308.15 K, x1 = 0.1998 | 915.319 | 1.42932
308.15 K, x1 = 0.2994 | 962.593 | 1.44399
308.15 K, x1 = 0.3999 | 1004.6 | 1.45694
308.15 K, x1 = 0.5 | 1041.69 | 1.46834
308.15 K, x1 = 0.5985 | 1074.34 | 1.47795
308.15 K, x1 = 0.7001 | 1104.49 | 1.4871
308.15 K, x1 = 0.8016 | 1131.65 | 1.49537
308.15 K, x1 = 0.9002 | 1155.59 | 1.50263
308.15 K, x1 = 1 | 1177.62 | 1.50943
313.15 K, x1 = 0.0997 | 856.701 | 1.41048
313.15 K, x1 = 0.1998 | 910.989 | 1.42712
313.15 K, x1 = 0.2994 | 958.146 | 1.4417
313.15 K, x1 = 0.3999 | 1000.06 | 1.45469
313.15 K, x1 = 0.5 | 1037.11 | 1.4662
313.15 K, x1 = 0.5985 | 1069.7 | 1.47585
313.15 K, x1 = 0.7001 | 1099.84 | 1.48507
313.15 K, x1 = 0.8016 | 1126.98 | 1.4933
313.15 K, x1 = 0.9002 | 1150.93 | 1.50061
313.15 K, x1 = 1 | 1172.97 | 1.50736
318.15 K, x1 = 0.0997 | 852.519 | 1.40835
318.15 K, x1 = 0.1998 | 906.628 | 1.42501
318.15 K, x1 = 0.2994 | 953.674 | 1.43965
318.15 K, x1 = 0.3999 | 995.51 | 1.45257
318.15 K, x1 = 0.5 | 1032.5 | 1.46395
318.15 K, x1 = 0.5985 | 1065.06 | 1.47376
318.15 K, x1 = 0.7001 | 1095.18 | 1.48299
318.15 K, x1 = 0.8016 | 1122.32 | 1.49121
318.15 K, x1 = 0.9002 | 1146.27 | 1.49853
318.15 K, x1 = 1 | 1168.32 | 1.50524
323.15 K, x1 = 0.0997 | 848.279 | 1.40609
323.15 K, x1 = 0.1998 | 902.232 | 1.42274
323.15 K, x1 = 0.2994 | 949.172 | 1.4375
323.15 K, x1 = 0.3999 | 990.935 | 1.45024
323.15 K, x1 = 0.5 | 1027.87 | 1.46165
323.15 K, x1 = 0.5985 | 1060.4 | 1.47156
323.15 K, x1 = 0.7001 | 1090.51 | 1.48083
323.15 K, x1 = 0.8016 | 1117.65 | 1.48906
323.15 K, x1 = 0.9002 | 1141.61 | 1.4964
323.15 K, x1 = 1 | 1163.67 | 1.5032

COC(=O)CCCCC(=O)OC [dimethyl 1,6-hexanedioate] + CCC(C)=O
Settings | mass density, [1] [kg/m3] | refractive index, [2]
288.15 K, x1 = 0.1002 | 855.132 | 1.3909
288.15 K, x1 = 0.2002 | 893.327 | 1.39827
288.15 K, x1 = 0.3002 | 926.063 | 1.40453
288.15 K, x1 = 0.4004 | 954.409 | 1.40995
288.15 K, x1 = 0.5001 | 979.016 | 1.41452
288.15 K, x1 = 0.5999 | 1000.72 | 1.41853
288.15 K, x1 = 0.6998 | 1020.03 | 1.42204
288.15 K, x1 = 0.7994 | 1037.28 | 1.42515
288.15 K, x1 = 0.8997 | 1052.86 | 1.42797
288.15 K, x1 = 1 | 1066.79 | 1.4305
293.15 K, x1 = 0.1002 | 849.982 | 1.38847
293.15 K, x1 = 0.2002 | 888.227 | 1.39586
293.15 K, x1 = 0.3002 | 921.006 | 1.40221
293.15 K, x1 = 0.4004 | 949.39 | 1.40768
293.15 K, x1 = 0.5001 | 974.03 | 1.41229
293.15 K, x1 = 0.5999 | 995.763 | 1.41634
293.15 K, x1 = 0.6998 | 1015.1 | 1.41989
293.15 K, x1 = 0.7994 | 1032.37 | 1.42303
293.15 K, x1 = 0.8997 | 1047.98 | 1.42587
293.15 K, x1 = 1 | 1061.93 | 1.42842
298.15 K, x1 = 0.1002 | 844.812 | 1.38601
298.15 K, x1 = 0.2002 | 883.111 | 1.39346
298.15 K, x1 = 0.3002 | 915.937 | 1.39988
298.15 K, x1 = 0.4004 | 944.361 | 1.4054
298.15 K, x1 = 0.5001 | 969.035 | 1.41005
298.15 K, x1 = 0.5999 | 990.798 | 1.41416
298.15 K, x1 = 0.6998 | 1010.17 | 1.41774
298.15 K, x1 = 0.7994 | 1027.45 | 1.42091
298.15 K, x1 = 0.8997 | 1043.08 | 1.42378
298.15 K, x1 = 1 | 1057.06 | 1.42636
303.15 K, x1 = 0.1002 | 839.62 | 1.38348
303.15 K, x1 = 0.2002 | 877.976 | 1.39104
303.15 K, x1 = 0.3002 | 910.852 | 1.39751
303.15 K, x1 = 0.4004 | 939.32 | 1.4031
303.15 K, x1 = 0.5001 | 964.032 | 1.4078
303.15 K, x1 = 0.5999 | 985.828 | 1.41196
303.15 K, x1 = 0.6998 | 1005.23 | 1.41557
303.15 K, x1 = 0.7994 | 1022.54 | 1.41878
303.15 K, x1 = 0.8997 | 1038.19 | 1.42168
303.15 K, x1 = 1 | 1052.18 | 1.42429
308.15 K, x1 = 0.1002 | 834.401 | 1.38097
308.15 K, x1 = 0.2002 | 872.82 | 1.38859
308.15 K, x1 = 0.3002 | 905.75 | 1.39515
308.15 K, x1 = 0.4004 | 934.263 | 1.40079
308.15 K, x1 = 0.5001 | 959.015 | 1.40555
308.15 K, x1 = 0.5999 | 980.845 | 1.40974
308.15 K, x1 = 0.6998 | 1000.27 | 1.41341
308.15 K, x1 = 0.7994 | 1017.61 | 1.41667
308.15 K, x1 = 0.8997 | 1033.29 | 1.41961
308.15 K, x1 = 1 | 1047.31 | 1.42222
313.15 K, x1 = 0.1002 | 829.151 | 1.37832
313.15 K, x1 = 0.2002 | 867.64 | 1.38611
313.15 K, x1 = 0.3002 | 900.629 | 1.39277
313.15 K, x1 = 0.4004 | 929.193 | 1.39848
313.15 K, x1 = 0.5001 | 953.987 | 1.4033
313.15 K, x1 = 0.5999 | 975.853 | 1.40756
313.15 K, x1 = 0.6998 | 995.312 | 1.41126
313.15 K, x1 = 0.7994 | 1012.68 | 1.41455
313.15 K, x1 = 0.8997 | 1028.38 | 1.41751
313.15 K, x1 = 1 | 1042.43 | 1.42017
318.15 K, x1 = 0.1002 | 823.875 | 1.37568
318.15 K, x1 = 0.2002 | 862.438 | 1.38355
318.15 K, x1 = 0.3002 | 895.489 | 1.39031
318.15 K, x1 = 0.4004 | 924.104 | 1.39611
318.15 K, x1 = 0.5001 | 948.941 | 1.401
318.15 K, x1 = 0.5999 | 970.845 | 1.40532
318.15 K, x1 = 0.6998 | 990.336 | 1.40909
318.15 K, x1 = 0.7994 | 1007.74 | 1.41243
318.15 K, x1 = 0.8997 | 1023.47 | 1.41544
318.15 K, x1 = 1 | 1037.54 | 1.41819
323.15 K, x1 = 0.1002 | 818.564 | 1.37305
323.15 K, x1 = 0.2002 | 857.21 | 1.38103
323.15 K, x1 = 0.3002 | 890.33 | 1.38784
323.15 K, x1 = 0.4004 | 919.003 | 1.39374
323.15 K, x1 = 0.5001 | 943.887 | 1.39869
323.15 K, x1 = 0.5999 | 965.832 | 1.40307
323.15 K, x1 = 0.6998 | 985.36 | 1.40691
323.15 K, x1 = 0.7994 | 1002.79 | 1.4103
323.15 K, x1 = 0.8997 | 1018.55 | 1.41336
323.15 K, x1 = 1 | 1032.64 | 1.41614
